What was measured:
[1] = biological target: human Adenosine A1 receptor (Homo sapiens (Human), UniProt P30542); experiment: Adenosine receptor TR-FRET binding assay (A1); details: inhibition of binding of 100 nM CA200645; CHO cell membranes; Ki from IC50 by Cheng and Prusoff
Description: (§1) All FRET binding experiments were conducted at room temperature in white 384-well plates, in assay binding buffer containing 1× LabMed (Cisbio, France), 100 μg/mL saponin, 1% DMSO and 0.02% pluronic acid. Binding of the fluorescently labelled Adenosine receptor antagonist XAC (CA200645, FRET acceptor) to terbium-labelled A1, A2a, A2b and A3 adenosine receptors (FRET donors) was detected by time-resolved FRET due to the close proximity of the donor and acceptor in a binding event. To investigate the ability of unlabelled test compounds to bind to Adenosine A1, A2a, A2b and A3 receptors, dose response curves were constructed that determined the ability of a range of concentrations to inhibit the binding of 30 nM CA200645 to the A2b receptor and 100 nM CA200645 to the A1, A2a, and A3 receptor.
(§2) Serial dilution (1:3 dilutions) of test compounds in neat DMSO and transfer of a 400 nL sample of test compound into the assay plate was carried out using the Mosquito (TTP Labtech, UK). The compound samples were incubated for 2 hours at room temperature with a fixed concentration of CA200645 defined for each receptor (see above) and CHO cell membranes containing the human Adenosine A1 (0.5 μg/well), A2a (0.3 μg/well), A2b (1 μg/well) or A3 (1 μg/well) receptor in 40 μL of assay buffer. Total and non-specific binding of CA200645 was determined in the absence and presence of 10 μM XAC, respectively. Following 2 hours incubation, the level of CA200645 binding was detected on a Pherastar FSX (BMG Labtech, Germany) using standard TR-FRET settings. The terbium donor was excited with three laser flashes at a wavelength of 337 nm, and donor and acceptor emission was detected at 620 nm and 665 nm wavelengths, respectively. FRET ratios were obtained by multiplying the acceptor/donor ratio value by 10,000. Specific binding was determined by subtracting the non-specific binding FRET ratio from the total binding FRET ratio. Compound IC50 curves were analysed using GraphPad Prism 7.0 (GraphPad, USA) and Ki affinity values were determined from the obtained IC50 values using the method of Cheng and Prusoff.

[2] = biological target: human Adenosine A2a receptor (Homo sapiens (Human), UniProt P29274); experiment: Adenosine receptor TR-FRET binding assay (A2a); details: inhibition of binding of 100 nM CA200645; CHO cell membranes; Ki from IC50 by Cheng and Prusoff
Chain of human Adenosine A2a receptor (P29274 whole entry): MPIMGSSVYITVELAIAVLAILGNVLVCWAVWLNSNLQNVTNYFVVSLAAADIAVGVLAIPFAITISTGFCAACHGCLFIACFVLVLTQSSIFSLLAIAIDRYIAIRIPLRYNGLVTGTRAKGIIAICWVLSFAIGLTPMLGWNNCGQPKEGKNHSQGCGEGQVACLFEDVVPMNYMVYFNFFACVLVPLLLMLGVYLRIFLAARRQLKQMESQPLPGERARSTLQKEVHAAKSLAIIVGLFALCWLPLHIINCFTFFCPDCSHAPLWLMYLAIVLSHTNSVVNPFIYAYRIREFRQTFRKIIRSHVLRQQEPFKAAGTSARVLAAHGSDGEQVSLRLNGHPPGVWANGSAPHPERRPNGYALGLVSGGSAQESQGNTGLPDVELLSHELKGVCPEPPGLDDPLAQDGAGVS
Description: as §1, §2

[3] = biological target: human Adenosine A2b receptor (Homo sapiens (Human), UniProt P29275); experiment: Adenosine receptor TR-FRET binding assay (A2b); details: inhibition of binding of 30 nM CA200645; CHO cell membranes; Ki from IC50 by Cheng and Prusoff
Chain of human Adenosine A2b receptor (P29275 whole entry): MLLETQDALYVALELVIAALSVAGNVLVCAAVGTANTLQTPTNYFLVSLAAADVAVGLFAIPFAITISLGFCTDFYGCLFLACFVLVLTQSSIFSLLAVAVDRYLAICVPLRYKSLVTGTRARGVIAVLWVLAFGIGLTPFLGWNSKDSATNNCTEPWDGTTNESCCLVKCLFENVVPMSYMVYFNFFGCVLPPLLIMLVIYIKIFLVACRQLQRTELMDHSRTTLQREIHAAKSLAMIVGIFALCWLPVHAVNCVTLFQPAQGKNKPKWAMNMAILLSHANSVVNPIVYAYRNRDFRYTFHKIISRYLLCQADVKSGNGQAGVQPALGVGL
Description: as §1, §2

[4] = system: CD8+ T cells in human whole blood; experiment: Measurement of pCREB in CD8+ T cells in human whole blood; type: cell-based; details: T-cell, 3 μM NECA, rolipram, FACS
Description: Heparinised human whole blood was pre-incubated at 37° C. with serial dilutions of A2a antagonists for 20 min. and the phosphodiesterase inhibitor rolipram to amplify the pCREB response. The adenosine receptor agonist NECA is then added at a final concentration of 3 μM and following a 60 min incubation the blood is fixed and red blood cells lysed. White blood cells are isolated, permeabilized and stained with directly conjugated fluorescent antibodies to phospho-CREB (Alexa Fluor 488) and CD8 (Alexa Fluor 647) and the level of phospho-CREB in CD8+ T cells is measured by FACS using a BD Accuri C6 Flow Cytometer.

[5] = system: immature monocyte-derived dendritic cells (MoDC); experiment: MoDC pCREB assay; type: cell-based; details: Homo sapiens, Dendritic cell, CD209+/CD86-low cells, 1 μM NECA, 20 μM rolipram, largely specific to A2B
Description: Monocytes are isolated from human whole blood using CD14 microbeads (Miltenyi Biotec 130-050-201) and differentiated to immature monocyte-derived dendritic cells (MoDC) by culture for 5 days in Mo-DC Differentiation Medium (Miltenyi Biotec 130-094-812). MoDCs are seeded into fresh medium into U bottomed 96 well culture plates and pre-incubated at 37° C. with serial dilutions of A2A/B antagonists for 15 min. At the same time the cells are co-incubated with the phosphodiesterase inhibitor rolipram (final concentration of 20 μM) to amplify the subsequent pCREB response. Adenosine receptor agonist NECA is then added at 1 μM final concentration, leading to an increase in CREB phosphorylation. Following a 45 min incubation at 37° C., the cells are fixed, permeabilized and stained with directly conjugated fluorescent antibodies to phospho-CREB (Alexa Fluor 488), CD209 (PerCP-Cy5.5) and CD86 (APC). Samples are analysed by FACS to measure fluorescence in corresponding channels, and also forward and Side scatter. The population of CD209+/CD86-low cells corresponding to immature dendritic cells is gated for analysis of pCREB levels.
Approximately 5% of the analysed cells are positive for detection of pCREB in the absence of agonist stimulation, representing the background signalling of all pathways upstream of CREB. Following NECA stimulation this is increased to ˜80% pCREB+ve, and this increase is essentially fully reversible by A2B or dual A2A/B antagonists.
IC50 is represented as the point of inflection of a sigmoidal curve

[6] = system: human PBMCs; experiment: CD3/CD28 stimulated IL-2 release NECA reversal assay in human PBMCs; type: cell-based; details: PBMC, reversal of 1 uM NECA, 24 hours
Description: Blood is drawn from healthy volunteers using sodium citrate as the anticoagulant (0.3% final concentration). After centrifugation of the blood over Histopaque-1077, PBMCs are collected from the Histopaque/plasma interface and washed twice in PBS (300 g for 10 mins at room temp). Cells are plated at 50,000 cells/well in 150 μl RPMI/10% FCS in 96-well cell culture plates that have been precoated with 1 μg/ml CD3 antibody. 50 μl diluted compound mix is added to the cells, to obtain final concentrations of 1 μg/ml CD28 antibody, 1 uM NECA and 0.003-10 μM adenosine receptor antagonist. Assay plates are incubated for 24 hours at 37° C. in a humidified incubator. Culture supernatant is tested for IL-2 levels using the human IL-2 Tissue Culture Kit (Meso Scale Discovery).

[7] = biological target: human Adenosine A3 receptor (Homo sapiens (Human), UniProt P0DMS8); experiment: Adenosine receptor TR-FRET binding assay (A3); details: inhibition of binding of 100 nM CA200645; CHO cell membranes; Ki from IC50 by Cheng and Prusoff
Chain of human Adenosine A3 receptor (P0DMS8 whole entry): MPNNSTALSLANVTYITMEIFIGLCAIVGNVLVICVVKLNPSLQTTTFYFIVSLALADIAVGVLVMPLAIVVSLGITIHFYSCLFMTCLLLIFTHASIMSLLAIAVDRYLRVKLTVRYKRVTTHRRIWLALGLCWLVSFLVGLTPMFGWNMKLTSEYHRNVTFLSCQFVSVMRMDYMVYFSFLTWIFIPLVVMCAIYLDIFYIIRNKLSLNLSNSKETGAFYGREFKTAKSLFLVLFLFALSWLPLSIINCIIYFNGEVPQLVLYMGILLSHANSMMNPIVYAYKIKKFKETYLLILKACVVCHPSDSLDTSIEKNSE
Description: as §1, §2

Chain of human Adenosine A1 receptor (P30542 whole entry): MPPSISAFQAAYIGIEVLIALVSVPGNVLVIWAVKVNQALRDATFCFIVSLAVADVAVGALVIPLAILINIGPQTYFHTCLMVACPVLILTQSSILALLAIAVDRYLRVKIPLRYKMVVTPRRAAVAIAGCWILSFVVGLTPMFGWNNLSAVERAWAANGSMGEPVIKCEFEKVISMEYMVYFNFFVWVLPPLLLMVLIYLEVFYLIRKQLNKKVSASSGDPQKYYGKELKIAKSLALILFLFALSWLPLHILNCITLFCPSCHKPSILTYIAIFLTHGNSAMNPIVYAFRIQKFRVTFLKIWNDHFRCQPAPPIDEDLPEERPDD

| Ki [1] [nM] | Ki [2] [nM] | Ki [3] [nM] | IC50 [4] [nM] | IC50 [5] [nM] | Ki [7] [nM] | Compound | IC50 [6] [nM] |
| --- | --- | --- | --- | --- | --- | --- | --- |
| 70 | 0.32 | 2.8 | 20 | 3 |  | Cc1ncnc2ccc(-c3sc(NC(=O)N4CCC5(CC4)COCCN5)nc3-c3cccc(C#N)c3)cc12 [Example 2, N-[4-(3-Cyanophenyl)-5-(4-methylquinazolin-6-yl)thiazol-2-yl]-4-oxa-1,9-diazaspiro[5.5]undecane-9-carboxamide] |  |
| 12 | 0.25 | 2.5 | 50 | 3 |  | Cc1ncnc2ccc(-c3sc(NC(=O)N4CCNCC4CC4CC4)nc3-c3cccc(C#N)c3)cc12 (centres unmarked) [Example 2.1, N-[4-(3-Cyanophenyl)-5-(4-methylquinazolin-6-yl)thiazol-2-yl]-2-(cyclopropylmethyl)piperazine-1-carboxamide] | 1.8 |
| 554 | 2.26 | 7.7 | 70 | 6 |  | Cc1ncnc2ccc(-c3sc(NC(=O)N4CCC(N5CCNCC5)CC4)nc3-c3cccc(C#N)c3)cc12 [Example 3, N-[4-(3-Cyanophenyl)-5-(4-methylquinazolin-6-yl)thiazol-2-yl]-4-piperazin-1-yl-piperidine-1-carboxamide] |  |
|  | 0.17 | 1.7 | 15 | 3 |  | Cc1ncnc2ccc(-c3sc(NC(=O)N4CC[C@H](C(C)(C)O)C4)nc3-c3cccc(C#N)c3)cc12 [Example 5, (3S)—N-[4-(3-Cyanophenyl)-5-(4-methylquinazolin-6-yl)thiazol-2-yl]-3-(1-hydroxy-1-methyl-ethyl)pyrrolidine-1-carboxamide] | 0.4 |
|  | 0.1 | 1.4 | 10 | 3 |  | Cc1ncnc2ccc(-c3sc(NC(=O)N4CC[C@@H](C(C)(C)O)C4)nc3-c3cccc(C#N)c3)cc12 [Example 7, (3R)—N-[4-(3-Cyanophenyl)-5-(4-methylquinazolin-6-yl)thiazol-2-yl]-3-(1-hydroxy-1-methyl-ethyl)pyrrolidine-1-carboxamide] | 0.3 |
| 467 | 6.56 | 1.6 |  |  | 126 | Cc1cc(-c2sc(NC(=O)N3CC4(COC4)C3)nc2-c2cccc(C#N)c2)c2[nH]ncc2n1 [Example 23, N-[4-(3-Cyanophenyl)-5-(5-methyl-1H-pyrazolo[4,3-b]pyridin-7-yl)thiazol-2-yl]-2-oxa-6-azaspiro[3.3]heptane-6-carboxamide] |  |
| 0.3 | 0.07 | 0.5 |  |  | 1730 | Cn1cnc2ccc(-c3sc(NC(=O)N4CC5(COC5)C4)nc3-c3cccc(C#N)c3)cc21 [Example 25, N-[4-(3-Cyanophenyl)-5-(3-methylbenzimidazol-5-yl)thiazol-2-yl]-2-oxa-6-azaspiro[3.3]heptane-6-carboxamide] |  |
| 0.3 | 0.33 | 0.5 |  |  | 904 | N#Cc1cccc(-c2nc(NC(=O)N3CC4(COC4)C3)sc2-c2ccc3nccn3c2)c1 [Example 26, N-[4-(3-Cyanophenyl)-5-imidazo[1,2-a]pyridin-6-yl-thiazol-2-yl]-2-oxa-6-azaspiro[3.3]heptane-6-carboxamide] |  |
| 0.5 | 0.08 | 2.9 |  |  | 907 | Cc1cc(-c2sc(NC(=O)N3CC4(COC4)C3)nc2-c2cccc(C#N)c2)cc2cn[nH]c12 [Example 27, N-[4-(3-Cyanophenyl)-5-(7-methyl-1H-indazol-5-yl)thiazol-2-yl]-2-oxa-6-azaspiro[3.3]heptane-6-carboxamide] |  |
| 21 | 8.4 | 6.7 |  |  | 628 | Cc1cc(-c2sc(NC(=O)N3CC4(COC4)C3)nc2-c2cccc(C#N)c2)cc2cn(C)nc12 [Example 28, N-[4-(3-Cyanophenyl)-5-(2,7-dimethylindazol-5-yl)thiazol-2-yl]-2-oxa-6-azaspiro[3.3]heptane-6-carboxamide] |  |
| 57 | 4.31 | 38.7 |  |  | 1180 | Cc1cc(-c2sc(NC(=O)N3CC4(COC4)C3)nc2-c2cccc(C#N)c2)cnn1 [Example 31, N-[4-(3-Cyanophenyl)-5-(6-methylpyridazin-4-yl)thiazol-2-yl]-2-oxa-6-azaspiro[3.3]heptane-6-carboxamide] |  |
| 272 | 8.87 | 136 |  |  | 103 | Cc1cc(-c2sc(NC(=O)N3CC4(COC4)C3)nc2-c2cccc(C#N)c2)cnc1-n1nccn1 [Example 32, N-[4-(3-Cyanophenyl)-5-[5-methyl-6-(triazol-2-yl)-3-pyridyl]thiazol-2-yl]-2-oxa-6-azaspiro[3.3]heptane-6-carboxamide] |  |
| 0.2 | 0.36 | 0.5 | 219 |  | 758 | N#Cc1cccc(-c2nc(NC(=O)N3CCOCC3)sc2-c2ccn3nccc3c2)c1 [Example 33, N-[4-(3-Cyanophenyl)-5-pyrazolo[1,5-a]pyridin-5-yl-thiazol-2-yl]morpholine-4-carboxamide] | 6.4 |
| 290 | 7.4 | 7.6 |  |  | 260 | Cc1cc(-c2sc(NC(=O)N3CC4(COC4)C3)nc2-c2cccc(C#N)c2)c2cc[nH]c2n1 [Example 34, N-[4-(3-Cyanophenyl)-5-(6-methyl-1H-pyrrolo[2,3-b]pyridin-4-yl)thiazol-2-yl]-2-oxa-6-azaspiro[3.3]heptane-6-carboxamide] |  |
| 1.6 | 1.4 | 1.6 |  |  | 130 | N#Cc1cccc(-c2nc(NC(=O)N3CC4(COC4)C3)sc2-c2ccc3ncoc3c2)c1 [Example 35, N-[5-(1,3-benzoxazol-6-yl)-4-(3-cyanophenyl)thiazol-2-yl]-2-oxa-6-azaspiro[3.3]heptane-6-carboxamide] |  |

Reference: patent US20250243194A1, “ANTAGONIST OF ADENOSINE RECEPTORS” (AdoRx Therapeutics Limited, priority 2022, published 2025)
